Converted amounts (≈) assume the structure as drawn. Like-named read-outs stand apart in the source and are kept apart here.
What was measured:
[1] = Recrystallization inhibition by surfactants (solvent shift supersaturation); type: physicochemical; conditions: 180 min
Method: The solvent shift method was used to create supersaturation. […] The solution was mixed at 50 r/min and 37 °C. A 3 mL sample of the solution was obtained at predetermined time intervals for measurement and supplemented with an equal volume of fresh medium. […] All tests were performed in triplicate.
Particle size measurements were performed at different time points using a Malvern Nano ZSP instrument (Malvern, UK). All tests were performed at 25 °C.

[2] = Solubility in organic solvents; type: physicochemical; conditions: organic solvent or mixture
Method: The solubility of NRV in organic solvents, including ethanol, propylene glycol, and ethyl acetate, was tested.

[3] = cited from earlier work
[4] = design: method as in PMID 36015346; conditions: cited from earlier work
[5] = Equilibrium solubility in water and buffers (saturated shake-flask, 37 °C, 24 h); type: physicochemical
Method: The solubility of active pharmaceutical ingredients (API) in water and buffers with various pH values (pH 1.2–pH 7.4) was investigated to guide formulation screening. The equilibrium solubility method was performed based on the saturated shake-flask solubility technique. An excess of each API was added into volumetric flasks containing the medium and placed in a thermostatic shaking chamber (HNY-2102C, Tianjin, China) for 24 h of continuous shaking (150 r/min) at 37 °C. The supernatant was filtered through a 0.45 μm PTFE filter membrane, and then an equal amount of methanol was added to prevent API precipitation. The concentrations were quantified using HPLC. Content analysis was performed using an HPLC system (Thermo Fisher Scientific, Waltham, MA, USA) using methanol:water (88:12, v/v) as the mobile phase. The injection volume of the filtered sample was 10 µL. Separation was performed using an Agilent C18 column (4.60 mm × 250 mm, 5 μm) with a mobile-phase flow rate of 1.0 mL/min. The detection wavelength was set at 203 nm.

[6] = Solubility in aqueous solutions of different surfactants (0.2% m/v); conditions: vs no surfactant
SARS-CoV-2 Mpro = test system: SARS-CoV-2 Mpro; design: method as in PMID 20937904; conditions: cited from earlier work

In the case of `CC(C)(C)[C@H](NC(=O)C(F)(F)F)C(=O)N1C[C@H]2[C@@H]([C@H]1C(=O)N[C@H](C#N)C[C@@H]1CCNC1=O)C2(C)C` [NRV, (1R,2S,5S)-N-((1S)-1-Cyano-2-((3S)-2-oxopyrrolidin-3-yl)ethyl)-3-((2S)-3,3-dimethyl-2-(2,2,2-trifluoroacetamido)butanoyl)-6,6-dimethyl-3-azabicyclo [3.1.0] hexane-2-carboxamide], the “Change of concentration of supersaturated solution vs original concentration” value ([1]; aqueous surfactant solutions, 37 °C) is reported as “no significant alteration”, the solubility ([2]; ethanol, read-out: Solubility in ethanol (crude concentration)) is reported as 16.5 to 33 mg/mL (≈ 33000 to 66100 µM) and the solubility ([2]; ethyl acetate, read-out: Solubility in ethyl acetate (crude concentration)) is reported as over 57 mg/mL. The solubility ([2]; propylene glycol, read-out: Solubility in propylene glycol (crude concentration)) was under 1.6 mg/mL, the BCS class [3] was “II/IV” and the “Logp (Table S1)” value ([3]; predictive, ref 1–3 (supplement)) was 0.845. For the same compound, the “BCS classification (Table S1)” value ([3]; ref 1–3 (supplement)) was “BCS II / IV”, the “Solubility in words (Table S1)” value ([3]; ref 1–3 (supplement)) was “low solubility in water and buffered aqueous media” and the “Stability under oxidative and photolytic conditions” value [4] was “stable”. For the same compound, the “Stability under strongly acidic and alkaline conditions” value [4] was “hydrolytic”, the solubility at 24 h ([5]; aqueous buffer, thermodynamic from solid, pH 2.0, 37 °C, read-out: Solubility (concentration, mean ± SD)) was 983.2 ± 5.4 µg/mL (≈ 1970 µM) and the solubility at 24 h ([5]; aqueous buffer, thermodynamic from solid, pH 3.8, 37 °C, read-out: Solubility (concentration, mean ± SD)) was 974.7 ± 4.8 µg/mL (≈ 1950 µM). For the same compound, the solubility at 24 h ([5]; aqueous buffer, thermodynamic from solid, pH 4.5, 37 °C, read-out: Solubility (concentration, mean ± SD)) was 973.5 ± 5.3 µg/mL (≈ 1950 µM), the solubility at 24 h ([5]; aqueous buffer, thermodynamic from solid, pH 6.8, 37 °C, read-out: Solubility (concentration, mean ± SD)) was 957.8 ± 7.5 µg/mL (≈ 1920 µM) and the solubility at 24 h ([5]; aqueous buffer, thermodynamic from solid, pH 7.4, 37 °C, read-out: Solubility (concentration, mean ± SD)) was 998.8 ± 6.2 µg/mL (≈ 2000 µM). The solubility at 24 h ([5]; buffers pH 1.2–8.0, read-out: Solubility in each buffer) was 950 to 1000 µg/mL (≈ 1900 to 2000 µM), the solubility at 24 h ([5]; thermodynamic from solid, pH 1.2, 37 °C, read-out: Solubility (concentration, mean ± SD)) was 997.7 ± 6.5 µg/mL (≈ 2000 µM) and the solubility at 24 h ([5]; water, 37 °C, read-out: Solubility in water) was 953.1 ± 7.6 µg/mL (≈ 1910 µM). The “Change of solubility in the presence of poloxamer” value [6] was “no significant change” and the “Change of solubility in the presence of HCO and Tween” value ([6]; p < 0.05) was “increased”.

For `CC(C)c1nc(CN(C)C(=O)N[C@H](C(=O)N[C@@H](Cc2ccccc2)C[C@H](O)[C@H](Cc2ccccc2)NC(=O)OCc2cncs2)C(C)C)cs1` [RTV, 10-Hydroxy-2-methyl-5-(1-methylethyl)-1-[2-(1methylethyl)-4-thiazolyl]-3,6-dioxo-8,11-bis(phenylmethyl)-2,4,7,12-tetraazatridecan-13-oic acid, 5-thiazolylmethyl ester, [5S-(5R*,8R*,10R*,11R*)]], the “Activity against SARS-CoV-2 Mpro” value (SARS-CoV-2 Mpro) is listed as “inactive”, the “Concentration of supersaturated solution during the experimental period” value ([1]; with HCO and Tween, p < 0.001 vs no surfactant) is listed as “effectively sustained” and the “BCS classification (Table S1)” value ([3]; ref 1–3 (supplement)) is listed as “BCS II”.

Reference: paper PMC10818454, “The Development of an Oral Solution Containing Nirmatrelvir and Ritonavir and Assessment of Its Pharmacokinetics and Stability” (Pharmaceutics, 2024)
